Experimental data taken from US20070238700A1, “N-PHENYL-1,1,1-TRIFLUOROMETHANESULFONAMIDE HYDRAZONE DERIVATIVE COMPOUNDS AND THEIR USAGE IN CONTROLLING PARASITES” (priority 2006, published 2007).
Where two headings read alike, the source gives them in different places.

Key:
Haemonchus contortus = Haemonchus contortus larvacidal assay (larval development, LD99)
Description: a) Haemonchus Contortus Larvacidal Assay:
The effect of compounds on larval development was determined in the assay described by Gill et al., (1995, International Journal of Parasitology 25:463-470). Briefly, in this assay, nematode eggs were applied to the surface of an agar matrix containing the test compound and then allowed to develop through to the L3, infective stage (6 days). The wells for each dilution of every compound (from highest to lowest concentration) were inspected to determine the well number corresponding to the lowest concentration at which development was inhibited in 99% of the nematode larvae present (LD99). Because well numbers correspond to a two-fold serial dilution of each compound, a titre (dilution factor) is generated as 2n^−1, where n is the well number. By dividing the highest concentration tested by the titre an LD99 value can be obtained, representing the concentration required to inhibit development in 99% of the nematode larvae present. The compounds supplied as solid and viscous liquids were dissolved in DMSO. Twelve serial one-half dilutions in DMSO solution were prepared from the stock solution, each of which was then diluted ⅕ with water. Aliquots (10 μl) of each dilution were transferred to the bioassay plates to give a final concentration range of 0.024 to 50 μg/ml.

Ctenocephalides felis [1] = system: Ctenocephalides felis
Summary of the method: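 Adult cat fleas (3–7 days post-emergence), 15 per flask in ≥4 replicates, exposed to a dried acetone residue at 1.26 μg/cm^2 on a Coatasil-treated glass flask base. Held at 25±1° C, 75±5% humidity; mortality (immobile or unable to right) scored at 8, 24 and/or 48 h.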

Ctenocephalides felis [2] = test: Ctenocephalides felis adulticide assay: C. felis dose response (LC50)
Rhipicephalus sanguineus [3] = test: Rapid screening protocol for topical application on brown dog ticks (% mortality); conditions: data from laboratory 2
Summary of the method: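 Mixed-sex unfed adult ticks each received 1 μL test sample in acetone on the abdomen at a single screening dose chosen above the reference LD90 (fipronil 10 μg/tick), with acetone-only controls; 4 replicates of 10 ticks. Held 24 h at 25±1 °C; ticks unresponsive to light touch over 1 min scored dead, pooled as % mortality.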

Rhipicephalus sanguineus [4] = test: Dose response protocol for topical application on brown dog ticks (LD50); conditions: 24 h mortality, probit analysis
Summary of the method: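 Adult mixed-sex unfed ticks, groups of ten in four replicates, received 1 μL of one of seven acetone serial dilutions topically on the abdomen at 25±1° C; acetone-only controls. Mortality (no response to touch or breath within 30 s) was scored at 24 h to give the LD50.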

SMILES | H. contortus LD99 (Haemonchus contortus) [ppm] | further results
Cn1ccc(-c2cc(Cl)ccc2NS(=O)(=O)C(F)(F)F)n1 |  | melting point: 196 to 197 °C
CC(=NNc1ccc(C(F)(F)F)cc1)c1cc(Cl)ccc1NS(=O)(=O)C(F)(F)F [Compound 1, N-[2-[1-(4-trifluoro-methylphenyl)hydrazono]ethyl-4-chlorophenyl]-trifluoromethanesulfonamide] | 3.8 | 
CCC(=NNc1ccc(C(F)(F)F)cc1)c1cc(Cl)ccc1NS(=O)(=O)C(F)(F)F [Compound 2] | 6 | 
CC(=NNc1cccc(Cl)c1Cl)c1cc(Cl)ccc1NS(=O)(=O)C(F)(F)F [Compound 3] | 1.5 | 
CC(=NNc1ccc(Cl)cc1Cl)c1cc(Cl)ccc1NS(=O)(=O)C(F)(F)F [Compound 4] | 0.63 | 
CC(=NNc1ccc(Cl)c(Cl)c1)c1cc(Cl)ccc1NS(=O)(=O)C(F)(F)F [Compound 5] | 3.3 | 
CC(=NNc1cc(Cl)cc(Cl)c1)c1cc(Cl)ccc1NS(=O)(=O)C(F)(F)F [Compound 6] | 3.5 | 
CC(=NNc1cc(Cl)ccc1Cl)c1cc(Cl)ccc1NS(=O)(=O)C(F)(F)F [Compound 7] | 0.94 | 
CC(=NNc1ccc(Br)cc1)c1cc(Cl)ccc1NS(=O)(=O)C(F)(F)F [Compound 8] | 7.5 | C. felis Mortality (%) 8 h (Ctenocephalides felis [1]; 8 h, data from laboratory 2): 12^B %
COc1ccc(NN=C(C)c2cc(Cl)ccc2NS(=O)(=O)C(F)(F)F)cc1 [Compound 10] | >15 | 
CC(=NNC(=O)c1ccccc1)c1cc(Cl)ccc1NS(=O)(=O)C(F)(F)F [Compound 11] | >15 | 
CCC(=NNc1cccc(Cl)c1Cl)c1cc(Cl)ccc1NS(=O)(=O)C(F)(F)F [Compound 13, N-[2-[1-(2,3-dichlorophenyl)hydrazono]propyl-4-chlorophenyl]-trifluoromethanesulfonamide] | 3 | 
CCC(=NNc1ccc(Cl)c(Cl)c1)c1cc(Cl)ccc1NS(=O)(=O)C(F)(F)F [Compound 14] | 3.8 | 
CCC(=NNc1ccc(Br)cc1)c1cc(Cl)ccc1NS(=O)(=O)C(F)(F)F [Compound 15] | 3.8 | 
CCC(=NNc1cc(Cl)cc(Cl)c1)c1cc(Cl)ccc1NS(=O)(=O)C(F)(F)F [Compound 16] | 2.8 | 
CCC(=NNc1ccc(Cl)cc1Cl)c1cc(Cl)ccc1NS(=O)(=O)C(F)(F)F [Compound 18] | 0.47 | C. felis Mortality (%) 8 h (Ctenocephalides felis [1]; 8 h, data from laboratory 2): 5^B %
CCC(=NNc1cc(Cl)ccc1Cl)c1cc(Cl)ccc1NS(=O)(=O)C(F)(F)F [Compound 19] | 0.94 | 
C/C(=N\N(CCC#N)C(=O)c1ccccc1)c1cc(Cl)ccc1NS(=O)(=O)C(F)(F)F [Compound 222] |  | C. felis Mortality (%) 8 h (Ctenocephalides felis [1]): 5%; C. felis Mortality (%) 24 h (Ctenocephalides felis [1]): 89%; C. felis LC50 (Ctenocephalides felis [2]): 2.64 ppm; R. sanguineus Mortality (%) 24 h (Rhipicephalus sanguineus [3]): 88%; R. sanguineus LD50 (Rhipicephalus sanguineus [4]): 0.56 μg/tick
CCCCCC(=O)N(CCC#N)/N=C(\C)c1cc(Cl)ccc1NS(=O)(=O)C(F)(F)F [Compound 224] |  | C. felis Mortality (%) 8 h (Ctenocephalides felis [1]): 3%; C. felis Mortality (%) 24 h (Ctenocephalides felis [1]): 100%; C. felis LC50 (Ctenocephalides felis [2]): 3.54 ppm; R. sanguineus Mortality (%) 24 h (Rhipicephalus sanguineus [3]): 100%; R. sanguineus LD50 (Rhipicephalus sanguineus [4]): 0.71 μg/tick
